According to patent US7049301B2, “Quercetin derivatives and their medical usages” (Academy of Military Medical Sciences Institute of …, priority 2001, dated 2006):
pIC50: −log10 of the molar value. Read-outs that look alike come from different tables or passages of the source.

Tests used:
adenylate cyclase (AC) = assay: Activation of adenylate cyclase (AC) in rat cerebral cortex synaptolemma, cAMP produced; format: biochemical; conditions: for Amount of cAMP produced: X ± SD; for Activation of AC (in words): rat cerebral cortex synaptolemma
Experimental: 3.1 Effect on Activities of Adenylate Cyclase (AC) in Rat Cerebral Cortex:
Male Wistar rats weighed 200±20 g are sacrificed by decollation, and cerebral cortex is separated. Synaptolemma is extracted at 4° C. according to the method as described in literature (Rasenick M M et al, Pro. Natl. Acad. Sci. USA, 1980; 77:4628) and suspended in buffer solution, so that a protein concentration of 3˜5 mg/ml is reached. The synaptolemma has to be incubated in advance with the test medicine, as adenylate cyclase (AC) is located on it. The experiment is carried out as follows: portions of 100 μl reaction solution containing certain concentration of test medicine and 15 mmol/L HEPES, pH=7.5, 5 mmol/L MgCl2, 1 mmol/L EGTA, […], 60 mmol/L NaCl, 1 mmol/L aminophylline, 0.5 mg/ml phosphocreatine and 0.14 mg/ml phosphocreatine kinase are respectively dispensed into reaction tubes, followed by addition of 20 μg synaptolemma to each tube. Then, the tubes are immediately put into a water-bath at 30° C. to react for 10 minutes, which reaction is linear during the first 20 minutes. After that, all the reaction tubes are immediately transferred into boiling water and deposited for 3 minutes to terminate the reaction. The amount of cAMP thus produced is measured in an ice-bath environment with cAMP kit, the total reaction volume is 130 μL. The measure is carried out according to the instruction of the kit: various reagents are added and, after the reaction finishes, the tubes are centrifugated at 4000 rpm for 7 minutes. 120 μl supernatant is then pipetted into the measure cup, added afterwards with 1.5 ml anhydrous alcohol, after shaken up, 3.5 ml of scintillation solution is added. Then, the cups are sealed and shaken up, and are left overnight. The values of […] of all samples are determined then by Wallac 1409 liquid scintillation counter. The amount of cAMP produced can be calculated according to the standard curve and CPM. The results are statistically analyzed by ANOVA, and Dunnett's T test is made for inter-group comparison.

[1] = system: PC-12 cells damaged by corticosterone; assay: Protection of PC-12 cells damaged by corticosterone (MTT); format: cell-based, rat; conditions: for Absorbance (A): 10^−4 mol/L corticosterone, 48 h, MTT, 570 nm; for Increase of A (%): vs damaged control
Experimental: 3.2. Protection Effect of Compound of Formula I on PC-12 Cells Damaged by Corticosterone.
PC-12 cells are diluted into a suspension (2×10^5 cells/ml) with DMEM culture solution containing 5% calf serum and 5% horse serum, and then are transplanted into 96-well plates pretreated with polylysine, and cultivated under conditions of 37° C. and 5% CO2 for 2˜3 days. Cells are to grow all over the wells bottom before test. The culture solution is then pipetted away and serum-free DMEM is added containing certain concentration of test medicine and 10^−4 mol/L corticosterone, 10 μl of 5 mg/ml MTT is added 48 hours later to each well, shaking up slightly and, 4 hours later, 100 μl of 10% SDS is added to each well, again shaking up slightly. The plates are then left in the incubator overnight at 37° C.(about 8˜12 hours). After all the dark-blue crystals are dissolved, shaking up slightly and absorbance (A) of each sample at 570 nm is read using microplate reader.

mice = assay: Forced swimming test; format: in vivo; conditions: for Duration of immobility: abdominal administration, last 4 of 6 minutes; for immobility time: oral
Experimental: (1) The test is carried out according to literature (Arch Int. Pharmacodn. Ther, 1977, 229(2): 327). 30 minutes after abdominal injection or 60 minutes after oral administration, the mice are put into an open glass box (19 cm high and 12 cm of diameter). Water inside the glass box is 8 cm in depth and 22˜23° C. in temperature. The mice are put into the water for 6 minutes and observed by Vidio movement analyzer, the accumulated immobility time of the mice during the last 4 minutes and their activity are analyzed identically as above.

5HT1A receptor = biological target: T1, 5HT1A receptor (Rattus norvegicus, UniProt P19327); assay: 5HT1A receptor test, competition with 3H-8-OH-DPAT on rat hippocampal membrane receptor; format: binding
T1 construct: 50 μl of 1:5 suspension of rat hippocampal membrane receptor; from tissue; host or cells: rat hippocampal membranes
T1 sequence (P19327 1-422): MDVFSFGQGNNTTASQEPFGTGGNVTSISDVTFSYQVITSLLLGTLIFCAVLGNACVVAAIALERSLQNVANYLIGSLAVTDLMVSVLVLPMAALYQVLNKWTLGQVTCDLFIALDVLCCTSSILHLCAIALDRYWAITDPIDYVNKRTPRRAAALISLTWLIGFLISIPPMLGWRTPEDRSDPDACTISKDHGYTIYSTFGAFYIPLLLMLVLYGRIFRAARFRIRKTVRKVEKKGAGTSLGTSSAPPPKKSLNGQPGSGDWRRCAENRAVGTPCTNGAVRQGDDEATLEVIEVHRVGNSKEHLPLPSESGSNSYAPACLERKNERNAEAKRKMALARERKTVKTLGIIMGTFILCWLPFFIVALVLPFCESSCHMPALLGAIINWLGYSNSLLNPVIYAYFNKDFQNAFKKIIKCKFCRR
Experimental: 20 μl of ^3H-8-OH-DPAT ([…]) and 20 μl of sample solutions of different concentrations are added into 50 μl of 1:5 suspension of rat hippocampal membrane receptor, followed by addition of buffer solution to make up to final volume of 200 μL. Then the above-mentioned suspension is shaken up and incubated in a water-bath at 25° C. for 30 minutes. After quick filtration by suction and washing the membrane receptors, radioactivity value is read by liquid scintillation counter. 20 μl of 5HT […] sulfate (1 mmol) solution is used instead to determine the non-specific conjugation. Buspirone, a partially activating agent of 5HT1A receptor, is used as the positive control. The competitive inhibition rate of the sample to ^3H-8-OH-DPAT is calculated according to the radioactivity value.

With `CC1OC(OC[C@H]2O[C@@H](Oc3c(-c4ccc(O)c(O)c4)oc4cc(O)cc(O)c4c3=O)[C@H](O[C@@H]3OC[C@](O)(CO)[C@H]3O)[C@@H](O)[C@@H]2O)C(O)C(O)C1O` (stereo in doubt) [Compound of formula I, quercetin-3-O-β-D-apiofuranosyl-(1→2)-[α-D-rhamnopyranosyl-(1→6)]-β-D-glucopyranoside] the “Amount of cAMP produced” value (adenylate cyclase (AC); 13.5 μM (0.01 mg/ml)) was 23.27 ± 4.95 pmol/mg protein/minute, the “Amount of cAMP produced” value (adenylate cyclase (AC); 13.5 μM (0.01 mg/ml), listed as compound of formula I) was 23.27±4.95 pmol/mg protein/minute and the “Amount of cAMP produced” value (adenylate cyclase (AC); 40.5 μM) was 4.75 ± 6.33 pmol/mg protein/minute. The “Amount of cAMP produced” value (adenylate cyclase (AC); 135 μM) was 43.42 pmol/mg protein/minute, the “AC activation relative to same doses of imipramine and buspirone” value (adenylate cyclase (AC); 404 μM (0.3 mg/ml)) was 2˜3 times and the “Activation effect on AC (cAMP produced)” value (adenylate cyclase (AC); 404 μM (0.3 mg/ml)) was 68.34±10.45 pmol/mg protein/minute. The “Amount of cAMP produced” value (adenylate cyclase (AC); 405 μM) was 68.34 pmol/mg protein/minute, the “Protection effect on PC-12 cells damaged by corticosterone (in words)” value [1] was “strong protection effect” and the “Absorbance (A)” value ([1]; 4.04 μmol·L^−1) was 0.74 ± 0.14. The “Increase of A (%)” value ([1]; 4.04 μmol·L^−1) was 208.3%, the “Absorbance (A)” value ([1]; 14.38 μmol·L^−1) was 0.84 ± 0.08 and the “Increase of A (%)” value ([1]; 14.38 μmol·L^−1) was 250.0%. For the same molecule, the “Absorbance (A)” value ([1]; 40.43 μmol·L^−1) was 0.86 ± 0.10, the “Increase of A (%)” value ([1]; 40.43 μmol·L^−1) was 258.3% and the “Absorbance (A)” value ([1]; 134.77 μmol·L^−1) was 0.77 ± 0.11. For the same molecule, the “Increase of A (%)” value ([1]; 134.77 μmol·L^−1) was 220.8%, the “Absorbance (A)” value ([1]; 404.31 μmol·L^−1) was 0.61 ± 0.16 and the “Increase of A (%)” value ([1]; 404.31 μmol·L^−1) was 154.2%. For the same molecule, the Duration of immobility (mice; 0.31 mg/kg) was 148.69 ± 30.81 s, the Duration of immobility (mice; 0.31 mg/kg, listed as compound of formula I) was “shorten the immobility time” and the Duration of immobility (mice; 1.25 mg/kg) was 149.94 ± 34.87 s. For the same molecule, the Duration of immobility (mice; 5.00 mg/kg) was 134.38 ± 40.99 s, the immobility time (mice; 3.75 mg/kg) was 95.2 ± 47.4 s and the immobility time (mice; 7.5 mg/kg) was 62.2 ± 45.9 s. The immobility time (mice; 7.5 mg/kg, listed as compound of formula I) was “shorten the immobility time”, the immobility time (mice; 15 mg/kg) was 53.6 ± 50.8 s and the immobility time (mice; 30 mg/kg) was 111.5 ± 52.9 s. For the same molecule, the pIC50 (5HT1A receptor) was roughly 10.30.

`CCOc1cc(OCC)c2c(=O)c(OC3OC(COC4OC(C)C(O)C(O)C4O)C(O)C(O)C3OC3OCC(O)(CO)C3O)c(-c3ccc(OCC)c(OCC)c3)oc2c1` [5,7,3′,4′,-tetraethoxyl flavonol-3-O-β-D-apiofuranosyl-(1→2)-[α-D-rhamnopyranosyl-(1→6)]-β-D-glucopyranoside] gave a pIC50 (5HT1A receptor; competitive inhibition of 3H-8-OH-DPAT, rat hippocampal membrane, 25° C., 30 minutes, read-out: IC50) of roughly 9.70.

With `O=C1CC2(CCCC2)CC(=O)N1CCCCN1CCN(c2ncccn2)CC1` [buspirone] the “Amount of cAMP produced” value (adenylate cyclase (AC); 25 μM) was 19.52 ± 5.46 pmol/mg protein/minute, the “Amount of cAMP produced” value (adenylate cyclase (AC); 100 μM) was 19.71 ± 5.57 pmol/mg protein/minute and the “Amount of cAMP produced” value (adenylate cyclase (AC); 400 μM) was 24.63 pmol/mg protein/minute. The “Amount of cAMP produced” value (adenylate cyclase (AC); 1 mM) was 33.00 pmol/mg protein/minute and the “Activation of AC (in words)” value (adenylate cyclase (AC)) was “dose-dependently activate AC”.

With `CN(C)CCCN1c2ccccc2CCc2ccccc21` [imipramine] the “Amount of cAMP produced” value (adenylate cyclase (AC); 25 μM) was 15.07 ± 4.91 pmol/mg protein/minute, the “Amount of cAMP produced” value (adenylate cyclase (AC); 100 μM) was 18.53 ± 3.2 pmol/mg protein/minute and the “Amount of cAMP produced” value (adenylate cyclase (AC); 400 μM) was 30.32 pmol/mg protein/minute. The “Amount of cAMP produced” value (adenylate cyclase (AC); 1 mM) was 79.79 pmol/mg protein/minute and the “Activation of AC (in words)” value (adenylate cyclase (AC)) was “dose-dependently activate AC”.
